Measurements taken from patent US20240376154A1, “BIS-INTERCALATING PEPTIDES, CONJUGATES AND METHODS OF USE” (ZYMEWORKS BC INC., priority 2023, published 2024).
Like-named read-outs stand apart in the source and are kept apart here. Where a SMILES comes first, the peptide text is derived from it. Bridges are numbered along the chain shown (N, C = ends). Roman numbers before positions name the chains, in order. [ ]: non-standard residue; d: D form. The star is where a group is joined. Quinaldoyl(3-OH) = O=C(c1nc2ccccc2cc1O)*; NMeV = CN[C@H](C(=O)O)C(C)C; Pip = O=C(O)[C@@H]1CCCCN1; dDap = NC[C@@H](N)C(=O)O; Sar = CNCC(=O)O

How the values were obtained:
[1] = amide bond, 32-membered ring
[2] = test system: IGROV-1 (Ovarian Adenocarcinoma); experiment: Cell proliferation assay, IGROV-1; type: cell-based; conditions: 5 nights
Method: (§1) The ability of Compound 419 and Compound 424 to inhibit proliferation of tumour cells in vitro was measured by a cell proliferation assay using the following tumour cell lines: IGROV-1 (Ovarian Adenocarcinoma, NCI), JEG-3 (Placental Choriocarcinoma, AddexBio (C0030003)) and OVKATE (Ovarian Adenocarcinoma, Japanese Collection of Research Bioresources (JCRB) (JCRB1044)).
(§2) Cell lines were cultured as per vendor instructions prior to running the cell proliferation assay. Briefly, on the day prior to adding compound, cells (50 μL/well, 1000 cells/well) were added to sterile, tissue culture (TC)-treated, 384-well plates (ThermoFisher Scientific, Catalogue #164610) and incubated overnight at 37° C./5% CO2 to allow the cells to adhere to the plate surface. The next day, in a sterile, V-bottom, 96-well plate, compounds were titrated 1:3 in complete growth medium, creating a 10-point dose response titration with compounds at 3.5-times the desired final concentration. Control wells with no compound (growth medium only) were included for each compound titration in 96-well dilution plates. 20 uL from the 10-point dose response titration were added to the 384-well plate containing the seeded cells, in duplicate. Plates were incubated at 37° C./5% CO2 for 5 nights. After 5-night incubation, cell viability was quantified by the addition of 15 uL/well of CellTiter-Glo® (Promega, Catalogue #G7572) and incubation at room temperature for 30 minutes. After 30-minute incubation, luminescence was measured using a microplate luminometer (BioTek® Synergy™ H1 Microplate Reader). The resulting relative light units (RLU values) were converted to % cytotoxicity using the growth medium only control wells mentioned above:
(§3) Data was fit into 4-parameter logistic to curves using non-linear regression methods available with GraphPad Prism software (GraphPad Software, Inc.).

[3] = test system: JEG-3 (Placental Choriocarcinoma); experiment: Cell proliferation assay, JEG-3; type: cell-based; conditions: 5 nights
Method: as §1, §2, §3

[4] = test system: biotinylated hairpin DNA sequence 5'-GCATGCTTTTGCATGC; experiment: DNA binding by surface plasmon resonance (SPR); conditions: for KD (mM): SPR, 25° C., hairpin DNA
Method: Representative compounds prepared as described in Example 2 were assessed in two complementary DNA-binding assays. Increased melting temperature of herring sperm DNA was measured using differential scanning calorimetry (DSC) and binding kinetics were determined by surface plasmon resonance (SPR) using a short DNA hairpin sequence.
SPR experiments were conducted at 25° C. using a Biacore™ T200 instrument and SA-Biotin chip. PBST Buffer: Gibco PBS, pH 7.4 was modified with Tween®20 (0.01%) and DMSO (2%). Immobilization: a short biotinylated hairpin DNA sequence 5′-GCATGCTTTTGCATGC (5′ biotin) (SEQ ID NO: 1) that contains two known sandramycin binding segments (in bold) was heated to 90° C., cooled to RT then immobilized to 700 RU. Bis-intercalating peptides at concentrations of 5, 2.5, 1.25, 0.625, and 0.312 μM in PBST were flowed over the chip at 20 μL/min with an association time of 600 s followed by dissociation for 600 s. Reference cell values were subtracted and binding constants ka, kd, and KD were determined using Biacore™ T200 Evaluation Software, version 3.0.

[5] = Lipophilicity by experimental HPLC retention time; type: physicochemical; conditions: HPLC retention time as measure of lipophilicity; C18, 10 to 90% CH3CN/H2O with 0.1% FA over 25 min
Procedure, shortened: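 Reversed-phase HPLC with diode array detection on a Kinetex EVO C18 150×4.6, 2.6 μm column. Gradient 10 to 90% CH3CN/H2O with 0.1% FA over 25 min; retention time serves as the lipophilicity measure.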

[6] = test system: tumour cells (at least 4 of a panel of ovarian, breast, lung, pancreatic, placenta, colon cell lines); experiment: In vitro cytotoxicity (cell proliferation, CellTiter-Glo), average over tumour cell line panel; type: cell-based; conditions: for pIC50 (average): average pIC50 on all cell lines tested, 5 nights incubation, CellTiter-Glo
Procedure, shortened: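 Each cell line seeded at ~1000 cells/well and left to adhere overnight, then given a 10-point 1:3 compound titration for 5 nights at 37° C, 5% CO2. Viability read by CellTiter-Glo luminescence; IC50 per line, reported as pIC50 averaged across at least 4 lines.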

[7] = test system: OVKATE (Ovarian Adenocarcinoma); experiment: Cell proliferation assay, OVKATE; type: cell-based; conditions: 5 nights
Method: as §1, §2, §3

[8] = Stability in female mouse plasma; type: in vitro ADME; conditions: 1 μM, 37° C., 24 h
Method: The stability of exemplary compounds of general Formula I in mouse plasma was evaluated as follows.
Compounds were incubated at 1 μM in duplicate in female mouse plasma, 250 μL final volume, at 37° C. for 24 h. Aliquots were sampled at 0, 15, 30, 60, 120, 240, 480 and 1440 min. Proteins were precipitated by addition of 5 volumes of cold methanol. After centrifugation 10000×g for 10 min, the residual concentration of compound in the supernatant was measured using an appropriate LC-MS/MS method. The measured concentrations were expressed as a function of time through a one-phase decay exponential regression calculated using GraphPad Prism software (GraphPad Software, Inc.) to generate the plasma half-life for each compound.

In the case of “Tert-butyl (4-nitrobenzyl) ((7R,10aS,22aS,29R,32aS,44aS)-18,40-dimethyl-6,16,19,22,28,32,38,41,44-nonaoxodotetracontahydro-6H-tetrapyrido[2,1-b1: 2′,1′-c: 2″,1″-1:2′″,1′″-s][1]oxa[4,7,10,13,17,20,23,26,29]nonaazacyclodotriacontine-7,29-diyl)dicarbamate”, the ring closure, yield after HPLC [1] is reported as 23%.
Work on “Benzyl tert-butyl ((7R,11S,19aS,26R,30S,38aS)-11,30-diisopropyl-15,34-dimethyl-6,10,13,16,19,25,29,32,35,38-decaoxohexatriacontahydro-2H,6H-dipyrido[1,2-a:1′,2′-q][1,4,7,10,13,17,20,23,26,29]decaazacyclodotriacontine-7,26-diyl)dicarbamate” yielded a ring closure, yield after HPLC [1] of 20%.
Compound `CC(C)[C@H]1C(=O)NC[C@@H](NC(=O)c2nc3ccccc3cc2O)C(=O)N2CCCC[C@H]2C(=O)NCC(=O)N(C(C)C)CC(=O)N(C)[C@@H](C(C)C)C(=O)NC[C@@H](NC(=O)c2nc3ccccc3cc2O)C(=O)N2CCCC[C@H]2C(=O)NCC(=O)N(C(C)C)CC(=O)N1C` [Compound 424, N,N′-((7R,11S,19aS,26R,30S,38aS)-11,15,30,34-tetraisopropyl-12,31-dimethyl-6,10,13,16,19,25,29,32,35,38-decaoxohexatriacontahydro-2H,6H-dipyrido[1,2-a:1′,2′-q][1,4,7,10,13,17,20,23,26,29]decaazacyclodotriacontine-7,26-diyl)bis(3-hydroxyquinoline-2-carboxamide)] has an EC50 [2] of 54 nM and an EC50 [3] of 55.7 nM.
In the case of `CC(C)[C@H]1C(=O)NC[C@@H](NC(=O)c2nc3ccccc3cc2O)C(=O)N2CCCC[C@H]2C(=O)NCC(=O)NCC(=O)N(C)[C@@H](C(C)C)C(=O)NC[C@@H](NC(=O)c2nc3ccccc3cc2O)C(=O)N2CCCC[C@H]2C(=O)NCC(=O)NCC(=O)N1C` [Compound 137, N,N′-((7R,11S,19aS,26R,30S,38aS)-11,30-diisopropyl-12,31-dimethyl-6,10,13,16,19,25,29,32,35,38-decaoxohexatriacontahydro-2H,6H-dipyrido[1,2-a:1′,2′-q][1,4,7,10,13,17,20,23,26,29]decaazacyclodotriacontine-7,26-diyl)bis(3-hydroxyquinoline-2-carboxamide)] (I: {Quinaldoyl(3-OH)}-[dDap][Pip]GG[NMeV] / II: {Quinaldoyl(3-OH)}-[dDap][Pip]GG[NMeV]; amide I:1-II:C, I:C-II:1), the “DNA binding via SPR (in words)” value [4] is reported as “did not demonstrate measurable DNA binding”, the “KD (mM)” value [4] is reported as “none” and the “HPLC” value [5] is reported as 15.1 min. The “activity in cell assays (in words)” value [6] was “inactive in cell assays” and the “pIC50 (average)” value [6] was “Inactive”.
“Benzyl N-[(3R,7S,20S,27R,31S,44S)-27-[(tert-butoxycarbonyl)amino]-15,39-dimethyl-2,6,13,16,19,26,30,37,40,43-decaoxo-1,5,12,15,18,25,29,36,39,42-decaazapentacyclo[42.4.0.0^7,12.0^20,25.0^31,36]octatetracontan-3-yl]carbamate” gave a ring closure, yield after HPLC [1] of 40%.
Compound `CCCN1CC(=O)N(C)[C@@H](C(C)C)C(=O)NC[C@@H](NC(=O)c2nc3ccccc3cc2O)C(=O)N2CCCC[C@H]2C(=O)NCC(=O)N(CCC)CC(=O)N(C)[C@@H](C(C)C)C(=O)NC[C@@H](NC(=O)c2nc3ccccc3cc2O)C(=O)N2CCCC[C@H]2C(=O)NCC1=O` [Compound 419, N,N′-((7R,11S,19aS,26R,30S,38aS)-11,30-diisopropyl-12,31-dimethyl-6,10,13,16,19,25,29,32,35,38-decaoxo-15,34-dipropylhexatriacontahydro-2H,6H-dipyrido[1,2-a:1′,2′-q][1,4,7,10,13,17,20,23,26,29]decaazacyclodotriacontine-7,26-diyl)bis(3-hydroxyquinoline-2-carboxamide)] has an EC50 [2] of 11.5 nM, an EC50 [3] of 6.9 nM and an EC50 [7] of 24.1 nM.
In the case of `CC(C)[C@H]1C(=O)NCC(=O)N(C)CC(=O)N2CCCC[C@H]2C(=O)NC[C@@H](NC(=O)c2nc3ccccc3cc2O)C(=O)N(C)[C@@H](C(C)C)C(=O)NCC(=O)N(C)CC(=O)N2CCCC[C@H]2C(=O)NC[C@@H](NC(=O)c2nc3ccccc3cc2O)C(=O)N1C` [Compound 414, N,N′-((13S,16R,19aS,32S,35R,38aS)-13,32-diisopropyl-8,14,27,33-tetramethyl-6,9,12,15,19,25,28,31,34,38-decaoxohexatriacontahydro-2H,6H-dipyrido[2,1-c: 2′,1′-s][1,4,7,10,13,17,20,23,26,29]decaazacyclodotriacontine-16,35-diyl)bis(3-hydroxyquinoline-2-carboxamide)], the “DNA binding via SPR (in words)” value [4] is reported as “non-binding”, the “KD (mM)” value [4] is reported as “none” and the “HPLC” value [5] is reported as 16.8 min. For the same compound, the “activity in cell assays (in words)” value [6] was “inactive” and the “pIC50 (average)” value [6] was “inactive”.
Compound “(7R,11S,19aS,26R,38aS)-26-(((benzyloxy)carbonyl)amino)-11-isopropyl-12,15,30,30,31,34-hexamethyl-6,10,13,16,19,25,29,32,35,38-decaoxohexatriacontahydro-2H,6H-dipyrido[1,2-a:1′,2′-q][1,4,7,10,13,17,20,23,26,29]decaazacyclodotriacontin-7-aminium trifluoroacetate” has a ring closure, yield after HPLC ([1]; 2 steps) of 45%.
With `C[C@H]1NC(=O)[C@@H]2CCCCN2C(=O)CN(C)C(=O)CNC(=O)[C@@H]2CCCCN2C(=O)[C@H](NC(=O)c2nc3ccccc3cc2O)[C@@H](C)NC(=O)[C@@H]2CCCCN2C(=O)CN(C)C(=O)CNC(=O)[C@@H]2CCCCN2C(=O)[C@@H]1NC(=O)c1nc2ccccc2cc1O` [Quinaldopeptin, quinaldopeptin, reference compound] the EC50 [2] was 6.5 nM, the EC50 [3] was 9.8 nM and the “plasma stability (in words)” value [8] was “stability over the course of the experiment”. The “HPLC” value [5] was 16.7 min, the “pIC50 (average)” value [6] was 8.0 and the EC50 [7] was 14.8 nM.
In the case of `CC(C)[C@@H]1NC(=O)CN(C)C(=O)CNC(=O)[C@@H]2CCCCN2C(=O)[C@H](NC(=O)c2nc3ccccc3cc2O)CNC(=O)[C@H](C(C)C)NC(=O)CN(C)C(=O)CNC(=O)[C@@H]2CCCCN2C(=O)[C@H](NC(=O)c2nc3ccccc3cc2O)CNC1=O` [Compound 152] (I: {Quinaldoyl(3-OH)}-[dDap][Pip]G[Sar]V / II: {Quinaldoyl(3-OH)}-[dDap][Pip]G[Sar]V; amide I:1-II:C, I:C-II:1), the “DNA binding via SPR (in words)” value [4] is reported as “near complete loss of binding”, the “HPLC” value [5] is reported as 14.6 min and the “pIC50 (average)” value [6] is reported as 6.9.
